In patent publication US10167256B2, “Psychotrophic agents and uses thereof” (LB PHARMACEUTICALS INC., priority 2016, dated 2019):

Tests used:
sigma sites = conditions: cited from earlier work
[1] = test system: alpha-adrenergic receptor subtypes; conditions: cited from earlier work
[2] = test system: serotonin receptor subtypes; conditions: cited from earlier work
D4 receptor = D4 receptor (Homo sapiens (Human), UniProt P21917); conditions: cited from earlier work
D5 receptor = D5 receptor (Homo sapiens (Human), UniProt P21918); conditions: cited from earlier work
muscarinic receptors = conditions: cited from earlier work
in vitro = conditions: PAMPA
[3] = test system: histamine receptor subtypes; conditions: cited from earlier work
[4] = 2014 study, 30 psychiatric drugs; cited from earlier work
D1 receptor = D1 receptor (Homo sapiens (Human), UniProt P21728); conditions: cited from earlier work
[5] = PAMPA
5-HT2a receptor = 5-HT2a receptor (Homo sapiens (Human), UniProt P28223); conditions: cited from earlier work
α2 (non-selective) = experiment: Reference ligand displacement, α2 (non-selective); assay type: binding; conditions: α-2A (non-selective); reference ligand prazosin
Method: (§1) The ability of Compound 102 and 103 to bind α2 (non-selective), α2A, α2B, α2C, 5-HT2A (agonist), 5-HT2A (antagonist), D2L, D2S, and D3 was measured at concentrations ranging from 10×10^−5 to 10×10^−9 M and measuring displacement of reference ligands (prazosin for α2 (non-selective), yohimbine for α2A, α2B and α2C, DOI ([2,5-dimethoxy-4-iodophenyl]-2-aminopropane) for 5-HT2A (agonist), ketanserine for 5-HT2A (antagonist), butaclamol for D2L, 7-OH-DPAT for D2S, and (+) blutaclamol for D3). bound to the respective isolated receptor.

[6] = test system: rats dosed with amphetamine; experiment: Amphetamine-induced Locomotor Activity (LMA) assay; assay type: in vivo; conditions: 30 mg/kg orally, 6 hours post dosing, total ambulatory distance over 1 hour
Method: Efficacy of Compounds 102 and 103 was studied in rats in an amphetamine-induced Locomotor Activity (LMA) assay, a measure of positive aspects of the PANSS scale. In the LMA assay rats were dosed with amphetamine (Amp, 1 mg/kg, s.c.), causing excessive movement, in a cage with sensors that monitored how far each rat moved.
Distance moved, over the course of an hour, was measured 6 hours post dosing for Compounds 102 and 103 and amisulpride-risperidone was dosed 1 hour prior to measurement. The endpoint of this study was total ambulatory distance (the distance traveled by each animal in the cage). Total ambulatory distance data from this amphetamine induced LMA study are summarized in FIG. 2 (*: p<0.01; *: p<0.05).

5-HT2a (antagonist) = 5-HT2a (antagonist) (Homo sapiens (Human), UniProt P28223); experiment: Reference ligand displacement, 5-HT2A (antagonist); assay type: binding; conditions: ketanserine
Method: as §1

5-HT7 = 5-HT7 (Homo sapiens (Human), UniProt P34969); experiment: Reference ligand displacement, 5-HT7; assay type: binding
PCP-treated rats = experiment: Novel Object Recognition (NOR) assay, sub-chronic PCP; assay type: in vivo; conditions: PO; for difference between novel and familiar object exploration time: 3 hours post-dose, all doses save one; for known object exploration behavior in rats treated with PCP: compared with untreated rats, amisulpride and risperidone
Method: Efficacy of Compounds 102 and 103 was evaluated in rats in a Novel Object Recognition (NOR) assay, a well-established model recapitulating cognitive and negative aspects of the PANSS scale of schizophrenia. In this assay, animals were treated for several weeks with a low dose of phencyclidine (PCP) to impair the ability of the rat to discern between novel and familiar objects. Typically rats, like humans, would spend more time exploring a novel object than a familiar one.
Rats (n=10/group) were dosed with 2 mg/kg intraperitoneal twice a day (i.p., b.i.d.) for seven days followed by 7 days drug free. […] Novel object exploration time was measured for the test subjects from a sub-chronic PCP NOR study in rats (n=10/group). The differences in exploration time between novel (Tnovel¬) and familiar (Tfamliar) objects are depicted in FIG. 1A (*: p<0.05; and *: p<0.01).

D2S = D2S (Homo sapiens (Human), UniProt P14416); experiment: Reference ligand displacement, D2S; assay type: binding; conditions: 7-OH-DPAT
Method: as §1

D3 = D3 (Homo sapiens (Human), UniProt P35462); experiment: Reference ligand displacement, D3; assay type: binding; conditions: (+) butaclamol
Method: as §1

D2L = D2L (Homo sapiens (Human), UniProt P14416); experiment: Reference ligand displacement, D2L; assay type: binding; conditions: butaclamol
Method: as §1

α-2C(h) = α-2C(h) (Homo sapiens (Human), UniProt P18825); experiment: Reference ligand displacement, α2C; assay type: binding; conditions: yohimbine
Method: as §1

5-HT2a (agonist) = 5-HT2a (agonist) (Homo sapiens (Human), UniProt P28223); experiment: Reference ligand displacement, 5-HT2A (agonist); assay type: binding; conditions: DOI
Method: as §1

α-2B(h) = α-2B(h) (Homo sapiens (Human), UniProt P18089); experiment: Reference ligand displacement, α2B; assay type: binding; conditions: yohimbine
Method: as §1

dopamine D2 receptors [7] = target: T1, dopamine D2 receptors (Homo sapiens (Human), UniProt P14416); experiment: Dopamine D2 receptor membrane preparation, 3H spiperone binding; conditions: membrane based assay, 0.1 nM 3H spiperone
Method: Radioactivity was measured using a Packard Topcount.

dopamine D2 receptors [8] = target: T1, dopamine D2 receptors; experiment: Dopamine D2 receptor cell-based assay (calcium fluorescence, dopamine at EC80)
Method: Dopamine D2 receptor cells were seeded in a half a black, clear-bottomed 96 well plate. At a density of 15,000 cells/well to a volume of 25 μL and were left to incubate overnight. Calcium 5 dye in HEPES buffered HBSS (Hanks' balanced salt solution) was prepared and 10 μL was added to each well and the mixture was left to sit at 37° C. for 1 hour. After equilibration, 5 μL of the test compound and controls were added to the wells and incubated at room temperature for 10 minutes.

α-2A(h) = α-2A(h) (Homo sapiens (Human), UniProt P08913); experiment: Reference ligand displacement, α2A; assay type: binding; conditions: yohimbine
Method: as §1

Chain of D2L (P14416 whole entry): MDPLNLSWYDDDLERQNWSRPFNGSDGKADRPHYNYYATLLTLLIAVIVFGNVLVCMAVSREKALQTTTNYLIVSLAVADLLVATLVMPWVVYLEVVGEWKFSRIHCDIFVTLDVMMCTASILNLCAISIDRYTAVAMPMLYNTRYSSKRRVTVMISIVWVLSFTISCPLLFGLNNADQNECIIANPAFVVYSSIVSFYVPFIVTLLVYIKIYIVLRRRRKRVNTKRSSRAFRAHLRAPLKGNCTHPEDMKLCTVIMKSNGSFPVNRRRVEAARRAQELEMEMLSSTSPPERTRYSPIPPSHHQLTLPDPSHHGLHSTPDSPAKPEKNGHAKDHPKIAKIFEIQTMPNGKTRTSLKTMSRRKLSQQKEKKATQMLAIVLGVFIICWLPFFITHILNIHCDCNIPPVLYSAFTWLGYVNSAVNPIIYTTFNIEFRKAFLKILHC
Chain of D3 (P35462 whole entry): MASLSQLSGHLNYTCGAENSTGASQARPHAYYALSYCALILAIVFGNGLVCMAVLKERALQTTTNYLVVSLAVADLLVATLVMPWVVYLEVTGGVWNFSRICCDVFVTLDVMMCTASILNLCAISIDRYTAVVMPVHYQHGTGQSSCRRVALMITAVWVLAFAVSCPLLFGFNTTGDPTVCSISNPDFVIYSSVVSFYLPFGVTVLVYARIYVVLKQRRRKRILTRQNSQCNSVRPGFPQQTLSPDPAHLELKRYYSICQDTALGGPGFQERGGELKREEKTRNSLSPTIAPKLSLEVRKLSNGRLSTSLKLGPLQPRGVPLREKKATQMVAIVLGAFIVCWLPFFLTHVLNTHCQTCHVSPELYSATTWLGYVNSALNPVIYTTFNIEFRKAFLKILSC
Chain of 5-HT2a (antagonist) (P28223 whole entry, species assumed): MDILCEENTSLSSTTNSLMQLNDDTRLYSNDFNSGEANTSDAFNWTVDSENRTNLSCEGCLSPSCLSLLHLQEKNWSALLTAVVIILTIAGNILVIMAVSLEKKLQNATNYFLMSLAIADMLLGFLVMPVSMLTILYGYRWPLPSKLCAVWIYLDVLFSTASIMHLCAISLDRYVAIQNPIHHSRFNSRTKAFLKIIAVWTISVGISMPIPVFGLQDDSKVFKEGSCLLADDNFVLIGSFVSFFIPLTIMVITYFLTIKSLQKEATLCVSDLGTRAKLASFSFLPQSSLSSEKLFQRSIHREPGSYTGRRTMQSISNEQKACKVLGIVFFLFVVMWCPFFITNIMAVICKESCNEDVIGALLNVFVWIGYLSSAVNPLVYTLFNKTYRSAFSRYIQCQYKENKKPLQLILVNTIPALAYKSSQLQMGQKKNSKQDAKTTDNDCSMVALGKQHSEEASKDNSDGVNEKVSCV
Chain of 5-HT2a (agonist) (P28223 whole entry, species assumed): as above
Chain of D2S (P14416 other isoform, or with tags, fused parts or gaps): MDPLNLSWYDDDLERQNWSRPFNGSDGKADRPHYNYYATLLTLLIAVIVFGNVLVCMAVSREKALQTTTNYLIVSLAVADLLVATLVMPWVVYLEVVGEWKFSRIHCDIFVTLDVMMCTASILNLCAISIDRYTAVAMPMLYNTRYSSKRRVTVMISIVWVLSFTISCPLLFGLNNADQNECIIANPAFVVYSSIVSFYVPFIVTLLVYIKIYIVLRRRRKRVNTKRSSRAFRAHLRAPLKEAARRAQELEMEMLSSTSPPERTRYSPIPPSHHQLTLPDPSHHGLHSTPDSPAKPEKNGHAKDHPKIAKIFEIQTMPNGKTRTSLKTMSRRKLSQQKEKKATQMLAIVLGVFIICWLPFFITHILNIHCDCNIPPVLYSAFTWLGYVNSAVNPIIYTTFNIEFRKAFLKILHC
Chain of α-2B(h) (P18089 whole entry): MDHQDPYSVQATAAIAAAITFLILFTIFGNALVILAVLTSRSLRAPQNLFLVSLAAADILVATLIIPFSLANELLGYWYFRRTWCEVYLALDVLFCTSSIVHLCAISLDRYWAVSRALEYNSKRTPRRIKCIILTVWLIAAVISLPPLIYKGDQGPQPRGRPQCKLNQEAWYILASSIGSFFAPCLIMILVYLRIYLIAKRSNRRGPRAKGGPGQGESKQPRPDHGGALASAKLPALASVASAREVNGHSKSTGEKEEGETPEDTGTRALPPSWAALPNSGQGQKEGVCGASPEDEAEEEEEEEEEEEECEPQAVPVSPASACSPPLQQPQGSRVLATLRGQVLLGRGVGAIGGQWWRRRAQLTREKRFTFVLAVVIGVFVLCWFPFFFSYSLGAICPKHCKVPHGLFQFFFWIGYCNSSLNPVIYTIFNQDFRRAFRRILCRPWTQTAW
Chain of α-2C(h) (P18825 whole entry): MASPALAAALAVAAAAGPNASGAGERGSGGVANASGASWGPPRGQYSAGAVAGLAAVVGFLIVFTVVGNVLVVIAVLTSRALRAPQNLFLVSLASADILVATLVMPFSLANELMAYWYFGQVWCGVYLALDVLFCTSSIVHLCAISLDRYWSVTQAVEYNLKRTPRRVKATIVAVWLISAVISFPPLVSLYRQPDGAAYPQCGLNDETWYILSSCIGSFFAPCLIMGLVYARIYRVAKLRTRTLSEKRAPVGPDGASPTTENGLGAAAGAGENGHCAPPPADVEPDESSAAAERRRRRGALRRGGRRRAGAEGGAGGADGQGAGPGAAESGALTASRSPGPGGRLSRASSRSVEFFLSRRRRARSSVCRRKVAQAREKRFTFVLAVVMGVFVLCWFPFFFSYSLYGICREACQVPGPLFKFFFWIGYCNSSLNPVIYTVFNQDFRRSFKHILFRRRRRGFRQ
T1 sequence (P14416 whole entry): as the sequence (P14416 whole entry) above
Chain of α-2A(h) (P08913 whole entry): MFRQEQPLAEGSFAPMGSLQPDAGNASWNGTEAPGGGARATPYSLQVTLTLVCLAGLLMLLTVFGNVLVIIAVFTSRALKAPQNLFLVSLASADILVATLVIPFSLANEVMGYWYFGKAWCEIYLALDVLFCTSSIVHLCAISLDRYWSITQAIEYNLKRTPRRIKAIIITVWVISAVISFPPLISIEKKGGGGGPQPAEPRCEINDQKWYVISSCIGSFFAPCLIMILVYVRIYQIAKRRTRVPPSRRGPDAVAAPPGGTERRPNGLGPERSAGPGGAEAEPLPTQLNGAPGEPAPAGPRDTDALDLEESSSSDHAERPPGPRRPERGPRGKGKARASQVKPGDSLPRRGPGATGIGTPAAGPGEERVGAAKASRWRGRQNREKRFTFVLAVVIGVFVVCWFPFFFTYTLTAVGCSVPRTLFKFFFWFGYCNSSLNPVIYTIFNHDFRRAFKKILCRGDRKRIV
Chain of 5-HT7 (P34969 whole entry, species assumed): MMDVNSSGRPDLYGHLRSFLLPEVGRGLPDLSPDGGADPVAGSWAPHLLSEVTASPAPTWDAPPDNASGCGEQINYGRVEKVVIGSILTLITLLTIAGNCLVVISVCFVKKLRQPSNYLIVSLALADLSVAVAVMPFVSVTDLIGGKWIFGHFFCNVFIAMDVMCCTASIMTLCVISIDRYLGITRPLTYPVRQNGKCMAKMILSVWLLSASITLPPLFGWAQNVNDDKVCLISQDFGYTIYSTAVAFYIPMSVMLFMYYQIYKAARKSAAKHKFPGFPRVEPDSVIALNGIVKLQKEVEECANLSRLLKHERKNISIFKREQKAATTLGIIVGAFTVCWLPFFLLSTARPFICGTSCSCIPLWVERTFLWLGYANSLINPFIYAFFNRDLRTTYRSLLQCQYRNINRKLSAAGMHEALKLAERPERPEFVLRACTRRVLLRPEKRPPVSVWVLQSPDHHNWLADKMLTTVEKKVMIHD
Chain of D1 receptor (P21728 whole entry): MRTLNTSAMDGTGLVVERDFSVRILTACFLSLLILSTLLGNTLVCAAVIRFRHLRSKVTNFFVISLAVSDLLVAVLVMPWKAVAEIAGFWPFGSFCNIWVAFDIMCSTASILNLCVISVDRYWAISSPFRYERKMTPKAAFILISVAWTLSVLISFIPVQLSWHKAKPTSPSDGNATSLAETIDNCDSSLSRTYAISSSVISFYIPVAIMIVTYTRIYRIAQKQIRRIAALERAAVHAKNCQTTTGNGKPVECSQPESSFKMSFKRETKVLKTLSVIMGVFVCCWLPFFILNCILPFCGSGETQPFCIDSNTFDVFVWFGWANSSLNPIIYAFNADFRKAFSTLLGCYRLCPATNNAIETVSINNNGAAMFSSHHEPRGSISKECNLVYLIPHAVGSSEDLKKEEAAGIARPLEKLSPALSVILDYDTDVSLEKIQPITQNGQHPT
Chain of D4 receptor (P21917 whole entry): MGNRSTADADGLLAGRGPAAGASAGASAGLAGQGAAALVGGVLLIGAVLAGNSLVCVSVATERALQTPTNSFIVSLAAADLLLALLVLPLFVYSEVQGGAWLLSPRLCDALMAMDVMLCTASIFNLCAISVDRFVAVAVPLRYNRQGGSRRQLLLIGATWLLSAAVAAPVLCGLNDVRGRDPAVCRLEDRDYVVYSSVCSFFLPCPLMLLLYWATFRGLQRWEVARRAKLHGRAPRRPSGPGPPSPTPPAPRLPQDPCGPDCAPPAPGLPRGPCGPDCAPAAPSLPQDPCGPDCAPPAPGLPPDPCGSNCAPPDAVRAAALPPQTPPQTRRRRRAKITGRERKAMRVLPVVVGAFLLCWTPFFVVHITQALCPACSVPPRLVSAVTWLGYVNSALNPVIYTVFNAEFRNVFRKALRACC

| Papp (in vitro; pH 5) [×10⁻⁶ cm/s] | Papp (in vitro; pH 7.4) [×10⁻⁶ cm/s] | Structure (SMILES) | Permeability (cm/s) pH 7.4 [5] | IC50 (α2 (non-selective)) [nM] | Ki (α2 (non-selective)) [nM] | normalized amphetamine hyperactivity compared to amisulpride [6] | IC50 (5-HT2a (antagonist)) [nM] | Ki (5-HT2a (antagonist)) [nM] | difference between novel and familiar object exploration time (PCP-treated rats) | known object exploration behavior in rats treated with PCP (PCP-treated rats) | IC50 (D2S) [nM] | Ki (D2S) [nM] | IC50 (D3) [nM] | Ki (D3) [nM] | IC50 (D2L) [nM] | Ki (D2L) [nM] | IC50 (5-HT2a (agonist)) [nM] | Ki (5-HT2a (agonist)) [nM] | other results |
| --- | --- | --- | --- | --- | --- | --- | --- | --- | --- | --- | --- | --- | --- | --- | --- | --- | --- | --- | --- |
| 0.021 | 0.0052 | CCN1CCCC1CNC(=O)c1cc(S(=O)(=O)CC)c(NC)cc1OC (stereo not shown) [Compound 102] |  | 95 | 41 | statistically superior to that of amisulpride | 890 | 490 | increased the difference between novel and familiar object exploration time | able to restore known object exploration behavior in rats treated with PCP to levels similar to untreated rats | 8.4 | 3.4 | 11 | 2.5 | 2.7 | 0.66 | 270 | 200 | IC50 (5-HT7): 74 nM; Ki (5-HT7): 27 nM; IC50 (α-2C(h)): 790 nM; Ki (α-2C(h)): 240 nM; IC50 (α-2B(h)): 170 nM; Ki (α-2B(h)): 110 nM; IC50 (dopamine D2 receptors [7]): 8.2 nM; IC50 (dopamine D2 receptors [8]): 8.9 nM; IC50 (α-2A(h)): 480 nM; Ki (α-2A(h)): 220 nM |
|  |  | CCN1CCC[C@H]1CNC(=O)c1cc(S(=O)(=O)CC)c(NC)cc1OC [Compound 103, ((S)-4-methylamino-N-((1-ethyl-2-pyrrolidinyl)methyl)-5-(ethylsulfonyl))-2-methoxybenzamide] |  | 150 | 6.7 | statistically indistinguishable from that of amisulpride | 980 | 530 | increased the difference between novel and familiar object exploration time | able to restore known object exploration behavior in rats treated with PCP to levels similar to untreated rats | 1.4 | 0.56 | 5.5 | 1.2 | 1.7 | 0.41 | 550 | 410 |  |
|  |  | CNC(=C[N+](=O)[O-])NCCSCc1ccc(CN(C)C)o1 [Ranitidine, ranitidine] | 1.5 × 10^−10 cm/s |  |  |  |  |  |  |  |  |  |  |  |  |  |  |  | Permeability (cm/s) pH 5 ([5]; pH 5): 1.1 × 10^−10 cm/s |
| 0.031 | 7.8 | CC(C)NCC(O)COc1cccc2ccccc12 (stereo not shown) [Promanolol, propanolol] |  |  |  |  |  |  |  |  |  |  |  |  |  |  |  |  |  |

| Structure (SMILES) | Papp (in vitro; pH 5) [×10⁻⁶ cm/s] | Papp (in vitro; pH 7.4) [×10⁻⁶ cm/s] | Permeability (cm/s) pH 7.4 [5] | IC50 (α2 (non-selective)) [nM] | Ki (α2 (non-selective)) [nM] | normalized amphetamine hyperactivity compared to amisulpride [6] | IC50 (5-HT2a (antagonist)) [nM] | Ki (5-HT2a (antagonist)) [nM] | difference between novel and familiar object exploration time (PCP-treated rats) | known object exploration behavior in rats treated with PCP (PCP-treated rats) | IC50 (D2S) [nM] | Ki (D2S) [nM] | IC50 (D3) [nM] | Ki (D3) [nM] | IC50 (D2L) [nM] | Ki (D2L) [nM] | IC50 (5-HT2a (agonist)) [nM] | Ki (5-HT2a (agonist)) [nM] | other results |
| --- | --- | --- | --- | --- | --- | --- | --- | --- | --- | --- | --- | --- | --- | --- | --- | --- | --- | --- | --- |
| CCN1CCCC1CNC(=O)c1cc(S(=O)(=O)CC)c(N)cc1OC (stereo not shown) [Amisulpride, 4-amino-N-(((1-ethyl-2-pyrrolidinyl)methyl)-5-(ethylsulfonyl))-2-methoxybenzamide] | 0.00024 |  | 2.4 × 10^−11 cm/s |  |  |  |  |  |  |  |  |  |  |  |  |  |  |  | affinity for sigma sites (sigma sites): low affinity; affinity for alpha-adrenergic receptor subtypes [1]: low affinity; affinity for serotonin receptor subtypes [2]: low affinity; affinity for D4 receptor subtype (D4 receptor): without any affinity; affinity for D5 receptor subtype (D5 receptor): without any affinity; affinity for muscarinic receptors (muscarinic receptors): low affinity; affinity for histamine receptor subtypes [3]: low affinity; passive diffusion across a PAMPA membrane (Pe) [4]: lowest of 30 psychiatric drugs tested; affinity for D1 receptor subtype (D1 receptor): without any affinity; activity at the 5-HT2a receptor (5-HT2a receptor): not noted to have any activity |
